Results published in PubChem BioAssay AID1963868 (Molecular Pharmacology Branch, DTP, NCI, 2024).

Test system: KRAS PDC tumor spheroids (HUVEC+MSC), viability
Experiment: Anticancer human tumor 254851-301-R-J1-PDC patient-derived colon carcinoma cell line growth inhibition [KRAS2]
Conditions: for IC50: curve of first compound; for viability, T/C: stronger effect = lower value
Summary of the method: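 Combination screen of spheroid viability in tumor-cell co-cultures with endothelial (HUVEC) and mesenchymal stem cell stroma. Each agent was tested in half-log dilutions, topping at clinical Cmax or at 10 microM without a known Cmax.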

[1] = second compound 0.0316 µM, first compound 0.000316 µM
[2] = second compound 0.0316 µM, first compound 0.001 µM
[3] = second compound 0.0316 µM, first compound 0.00316 µM
[4] = second compound 0.0316 µM, first compound 0.01 µM
[5] = second compound 0.0316 µM, first compound 0.0316 µM
[6] = second compound 0.1 µM, first compound 0.000316 µM
[7] = second compound 0.1 µM, first compound 0.001 µM
[8] = second compound 0.1 µM, first compound 0.00316 µM
[9] = second compound 0.1 µM, first compound 0.01 µM
[10] = second compound 0.1 µM, first compound 0.0316 µM
[11] = second compound 0.316 µM, first compound 0.000316 µM
[12] = second compound 0.316 µM, first compound 0.001 µM
[13] = second compound 0.316 µM, first compound 0.00316 µM
[14] = second compound 0.316 µM, first compound 0.01 µM
[15] = second compound 0.316 µM, first compound 0.0316 µM
[16] = second compound 1 µM, first compound 0.000316 µM
[17] = second compound 1 µM, first compound 0.001 µM
[18] = second compound 1 µM, first compound 0.00316 µM
[19] = second compound 1 µM, first compound 0.01 µM
[20] = second compound 1 µM, first compound 0.0316 µM
[21] = second compound 3.16 µM, first compound 0.000316 µM
[22] = second compound 3.16 µM, first compound 0.001 µM
[23] = second compound 3.16 µM, first compound 0.00316 µM
[24] = second compound 3.16 µM, first compound 0.01 µM
[25] = second compound 3.16 µM, first compound 0.0316 µM
[26] = second compound 0.0316 µM, first compound 0.1 µM
[27] = second compound 0.1 µM, first compound 0.1 µM
[28] = second compound 0.316 µM, first compound 0.1 µM
[29] = second compound 1 µM, first compound 0.1 µM
[30] = second compound 3.16 µM, first compound 0.1 µM
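Further: spheroids exposed to compounds for seven days before readout.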
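Wherever viability, T/C is given: 100% = DMSO vehicle control luminescence of the spheroids.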

In the case of CC(=O)Nc1cccc(-n2c(=O)n(C3CC3)c(=O)c3c(Nc4ccc(I)cc4F)n(C)c(=O)c(C)c32)c1 + C=CC(=O)N1CCN(c2nc(OCC3CCCN3C)nc3c2CCN(c2cccc4cccc(C)c24)C3)CC1CC#N, the IC50 (second compound 0.0316 µM) is reported as 5.65 nM, the IC50 (second compound 0.1 µM) is reported as 5.79 nM and the IC50 (second compound 0.316 µM) is reported as 6.32 nM. It also gave an IC50 (second compound 1 µM) of 5.71 nM, an IC50 (second compound 3.16 µM) of 0.569 nM and a viability, T/C (second compound 0.0316 µM, first compound 0.0001 µM) of 103%. For the same molecule, the viability, T/C [1] was 94.3%, the viability, T/C [2] was 89.5% and the viability, T/C [3] was 72.1%. For the same molecule, the viability, T/C [4] was 29.2%, the viability, T/C [5] was 3.04% and the viability, T/C (second compound 0.1 µM, first compound 0.0001 µM) was 98.1%. It also gave a viability, T/C [6] of 106%, a viability, T/C [7] of 95.4% and a viability, T/C [8] of 77.9%. For the same molecule, the viability, T/C [9] was 25.1%, the viability, T/C [10] was 2.8% and the viability, T/C (second compound 0.316 µM, first compound 0.0001 µM) was 102%. The viability, T/C [11] was 114%, the viability, T/C [12] was 93.5% and the viability, T/C [13] was 84.9%. For the same molecule, the viability, T/C [14] was 27.5%, the viability, T/C [15] was 2.51% and the viability, T/C (second compound 1 µM, first compound 0.0001 µM) was 106%. The viability, T/C [16] was 109%, the viability, T/C [17] was 92.6% and the viability, T/C [18] was 83.4%. It also gave a viability, T/C [19] of 19.1%, a viability, T/C [20] of 1.86% and a viability, T/C (second compound 3.16 µM, first compound 0.0001 µM) of 76.9%. It also gave a viability, T/C [21] of 52.7%, a viability, T/C [22] of 40.3% and a viability, T/C [23] of 39.5%. For the same molecule, the viability, T/C [24] was 0.5% and the viability, T/C [25] was 0.93%.
CN(C)C/C=C/C(=O)Nc1cc2c(Nc3ccc(F)c(Cl)c3)ncnc2cc1O[C@H]1CCOC1 + C=CC(=O)N1CCN(c2nc(OCC3CCCN3C)nc3c2CCN(c2cccc4cccc(C)c24)C3)CC1CC#N was tested, and the IC50 (second compound 0.0316 µM) was greater than 100 nM, the IC50 (second compound 0.1 µM) was greater than 100 nM and the IC50 (second compound 0.316 µM) was greater than 100 nM. The IC50 (second compound 1 µM) was greater than 100 nM, the IC50 (second compound 3.16 µM) was greater than 100 nM and the viability, T/C [1] was 97.2%. It also gave a viability, T/C [2] of 99.7%, a viability, T/C [3] of 94.7% and a viability, T/C [4] of 96.7%. It also gave a viability, T/C [5] of 97.9%, a viability, T/C [26] of 78.7% and a viability, T/C [6] of 105%. The viability, T/C [7] was 101%, the viability, T/C [8] was 88.5% and the viability, T/C [9] was 92.6%. For the same molecule, the viability, T/C [10] was 97.7%, the viability, T/C [27] was 69.7% and the viability, T/C [11] was 101%. It also gave a viability, T/C [12] of 97.8%, a viability, T/C [13] of 92.6% and a viability, T/C [14] of 75%. For the same molecule, the viability, T/C [15] was 89.3%, the viability, T/C [28] was 74.5% and the viability, T/C [16] was 104%. The viability, T/C [17] was 97.9%, the viability, T/C [18] was 91.4% and the viability, T/C [19] was 95.9%. For the same molecule, the viability, T/C [20] was 96.7%, the viability, T/C [29] was 82.3% and the viability, T/C [21] was 67.5%. It also gave a viability, T/C [22] of 61.5%, a viability, T/C [23] of 51.8% and a viability, T/C [24] of 54.6%. The viability, T/C [25] was 62.6% and the viability, T/C [30] was 52.1%.
In the case of COC(=O)c1ccc2c(C(=Nc3ccc(N(C)C(=O)CN4CCN(C)CC4)cc3)c3ccccc3)c(O)[nH]c2c1 + C=CC(=O)N1CCN(c2nc(OCC3CCCN3C)nc3c2CCN(c2cccc4cccc(C)c24)C3)CC1CC#N, the IC50 (second compound 0.0316 µM) is reported as greater than 10000 nM, the IC50 (second compound 0.1 µM) is reported as greater than 10000 nM and the IC50 (second compound 0.316 µM) is reported as greater than 10000 nM. The IC50 (second compound 1 µM) was greater than 10000 nM, the IC50 (second compound 3.16 µM) was 583 nM and the viability, T/C [5] was 93.5%. For the same molecule, the viability, T/C [26] was 89.8%, the viability, T/C (second compound 0.0316 µM, first compound 0.316 µM) was 98.9% and the viability, T/C (second compound 0.0316 µM, first compound 1 µM) was 87.8%. For the same molecule, the viability, T/C (second compound 0.0316 µM, first compound 3.16 µM) was 81.7%, the viability, T/C (second compound 0.0316 µM, first compound 10 µM) was 83.3% and the viability, T/C [10] was 95.5%. For the same molecule, the viability, T/C [27] was 94.9%, the viability, T/C (second compound 0.1 µM, first compound 0.316 µM) was 92.3% and the viability, T/C (second compound 0.1 µM, first compound 1 µM) was 83.8%. For the same molecule, the viability, T/C (second compound 0.1 µM, first compound 3.16 µM) was 81.8%, the viability, T/C (second compound 0.1 µM, first compound 10 µM) was 82% and the viability, T/C [15] was 81%. The viability, T/C [28] was 88.5%, the viability, T/C (second compound 0.316 µM, first compound 0.316 µM) was 86.3% and the viability, T/C (second compound 0.316 µM, first compound 1 µM) was 77.1%. The viability, T/C (second compound 0.316 µM, first compound 3.16 µM) was 68.1%, the viability, T/C (second compound 0.316 µM, first compound 10 µM) was 77.8% and the viability, T/C [20] was 85.8%. The viability, T/C [29] was 86.2%, the viability, T/C (second compound 1 µM, first compound 0.316 µM) was 86.7% and the viability, T/C (second compound 1 µM, first compound 1 µM) was 78%. It also gave a viability, T/C (second compound 1 µM, first compound 3.16 µM) of 75.6%, a viability, T/C (second compound 1 µM, first compound 10 µM) of 76.3% and a viability, T/C [25] of 70%. The viability, T/C [30] was 65.2%, the viability, T/C (second compound 3.16 µM, first compound 0.316 µM) was 57.9% and the viability, T/C (second compound 3.16 µM, first compound 1 µM) was 42.3%. It also gave a viability, T/C (second compound 3.16 µM, first compound 3.16 µM) of 7.1% and a viability, T/C (second compound 3.16 µM, first compound 10 µM) of 0.21%.
